Experimental findings from US10793568B2, “Hormone receptor modulators for treating metabolic conditions and disorders” (ARDELYX, INC., priority 2016, dated 2020) are described below.

Structures are written as SMILES.

Broadly, the pEC50 is the EC50 on a negative log10 scale, so that one unit is a factor of ten. Low values mean a high EC50, high ones a low EC50.

The target in assay [1] is ligand binding domain of human FXR (Homo sapiens (Human), UniProt Q96RI1). As to the kind of experiment: FXR ligand binding assay (LanthaScreen TR-FRET, SRC2-2 peptide recruitment). As to conditions: for Emax: read-out: % Efficacy. Background: TR-FRET usually uses a lanthanide donor and a delayed reading to cut background.
Sequence of ligand binding domain of human FXR (Q96RI1 262-486): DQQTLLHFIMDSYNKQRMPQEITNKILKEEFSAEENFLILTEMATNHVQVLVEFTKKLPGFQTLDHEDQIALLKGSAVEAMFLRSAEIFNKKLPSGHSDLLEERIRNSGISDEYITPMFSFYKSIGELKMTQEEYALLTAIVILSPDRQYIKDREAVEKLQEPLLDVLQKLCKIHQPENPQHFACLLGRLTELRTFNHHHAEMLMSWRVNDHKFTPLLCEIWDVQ
The target in assay [2] is human Farnesoid X receptor ligand-binding domain/Gal4 DNA binding domain chimera (Homo sapiens (Human), UniProt Q96RI1). The assay can be described thus: Cell-based assay of FXR activation (FXR-UAS-bla HEK 293T beta-lactamase reporter). As to conditions: cellular FXR beta-lactamase reporter assay; for Emax: HEK-293T, read-out: % Efficacy. In outline:
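HEK 293T cells stably expressing a Gal4-fused human FXR LBD and a UAS-driven beta-lactamase reporter were incubated with serially diluted compounds for 16 h at 37 °C in phenol red-free DMEM with 2% charcoal-stripped FBS. CCF4 FRET read-out: excitation 409 nm, emission 447 nm. pEC50 comes from a 3-parameter logistic fit, and efficacy is given as % of GW4064.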

[3] abbreviates: -log EC50, concentration required to produce 50% activation.
Where [4] appears, read: extent of activation relative to GW4064.
The mark [5] stands for this setting: FXR-UAS-bla HEK 293T cells, 16 h, pEC50 = -log EC50.

Sequence of human Farnesoid X receptor ligand-binding domain/Gal4 DNA binding domain chimera (Q96RI1 262-486, change not shown): as the sequence (Q96RI1 262-486) above
Sequence of human Farnesoid X receptor ligand-binding domain/Gal4 DNA binding domain chimera (P04386 1-147 partner): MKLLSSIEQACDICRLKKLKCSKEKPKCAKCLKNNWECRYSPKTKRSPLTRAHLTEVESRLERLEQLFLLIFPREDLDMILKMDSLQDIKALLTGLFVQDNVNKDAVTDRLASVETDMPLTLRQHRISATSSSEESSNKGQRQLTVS

`CC(CCS(=O)(=O)NC(=O)c1ccc(N2C[C@@H]3C[C@H]2C[C@H]3OCc2c(-c3c(Cl)cccc3Cl)noc2C2CC2)cc1)OC(=O)CCC(=O)O` (stereo partly drawn) [Compound I-218, 4-({4-[({4-[(1S,4S,5R)-5-{[5-cyclopropyl-3-(2,6-dichlorophenyl)-1,2-oxazol-4-yl]methoxy}-2-azabicyclo[2.2.1]heptan-2-yl]phenyl}formamido)sulfonyl]butan-2-yl}oxy)-4-oxobutanoic Acid]: the EC50 in assay [1] (setting [3]) was 2.51 nM; in assay [2] (setting [5]), 5.01 nM. The Emax came out at 146% in assay [1] (setting [4]) and 101% in assay [2] (setting [4]).

With `O=C(O)c1cc(C(F)(F)F)c2nc(N3C[C@@H]4C[C@H]3C[C@H]4OC(=O)c3c(-c4c(Cl)cccc4Cl)noc3C3CC3)sc2c1` [Compound I-5, 2-[(1S,4S,5R)-5-[5-cyclopropyl-3-(2,6-dichlorophenyl)-1,2-oxazole-4-carbonyloxy]-2-azabicyclo[2.2.1]heptan-2-yl]-4-(trifluoromethyl)-1,3-benzothiazole-6-carboxylic acid], the pEC50 in assay [1] (setting [3]) was 7.2. Further, the Emax was found to be 139% in assay [1] (setting [4]) and 102% in assay [2] (setting [4]). This compound had an EC50 in assay [2] (setting [5]) of 39.8 nM.

For the compound `N#Cc1cc(F)c(N2C[C@@H]3C[C@H]2C[C@H]3OCc2c(-c3c(Cl)cccc3Cl)noc2C2CC2)c(F)c1` [Compound I-54a, 4-[(1S,4S,5R)-5-[[5-cyclopropyl-3-(2,6-dichlorophenyl)-1,2-oxazol-4-yl]methoxy]-2-azabicyclo[2.2.1]heptan-2-yl]-3,5-difluorobenzonitrile], in assay [1] (setting [3]), the pEC50 worked out at 7.0. Besides, the Emax in assay [1] (setting [4]) worked out at 162%; in assay [2] (setting [4]) it was 112%. The compound also had an EC50 in assay [2] (setting [5]) of 31.6 nM.

For `O=C(NS(=O)(=O)C1CCC1)c1ccc(N2C[C@@H]3C[C@H]2C[C@H]3OCc2c(-c3c(Cl)cccc3Cl)noc2C2CC2)cc1` [Compound I-183, N-(cyclobutylsulfonyl)-4-((1S,4S,5R)-5-((5-cyclopropyl-3-(2,6-dichlorophenyl)isoxazol-4-yl)methoxy)-2-azabicyclo[2.2.1]heptan-2-yl)benzamide], the pEC50 in assay [1] (setting [3]) worked out at 8.6. For the same compound, the Emax in assay [1] (setting [4]) is 163%; in assay [2] (setting [4]), 119%. In assay [2] (setting [5]), this compound showed an EC50 of 0.1 nM.

Consider `O=C(NS(=O)(=O)C1CC1)c1ccc(N2C[C@@H]3C[C@H]2C[C@H]3OCc2c(-c3c(Cl)cccc3Cl)noc2C2CC2)cc1F` [Compound I-195, 4-((1S,4S,5R)-5-((5-cyclopropyl-3-(2,6-dichlorophenyl)isoxazol-4-yl)methoxy)-2-azabicyclo[2.2.1]heptan-2-yl)-N-(cyclopropylsulfonyl)-2-fluorobenzamide], for which the pEC50 in assay [1] (setting [3]) worked out at 8.8. For the same compound, the Emax in assay [1] (setting [4]) came to 144%; in assay [2] (setting [4]), 109%. Further, the EC50 in assay [2] (setting [5]) is 0.316 nM.

In assay [1] (setting [3]), `Cc1cccc(Cl)c1-c1noc(C2CC2)c1CO[C@@H]1C[C@@H]2C[C@H]1CN2c1nc2c(O[C@@H]3CCOC3)cc(C(=O)O)cc2s1` [Compound I-275, 2-((1S,4S,5R)-5-((3-(2-chloro-6-methylphenyl)-5-cyclopropylisoxazol-4-yl)methoxy)-2-azabicyclo[2.2.1]heptan-2-yl)-4-(((R)-tetrahydrofuran-3-yl)oxy)benzo[d]thiazole-6-carboxylic acid] yielded a pEC50 of 8.8. Besides, the Emax was 140% in assay [1] (setting [4]) and 106% in assay [2] (setting [4]). In addition, in assay [2] (setting [5]), the EC50 is 0.631 nM.

`COc1ccccc1-c1noc(C2CC2)c1CO[C@@H]1C[C@@H]2C[C@H]1CN2c1nc2c(F)cc(C(=O)O)cc2s1` [Compound I-288, 2-((1S,4S,5R)-5-((5-cyclopropyl-3-(2-methoxyphenyl)isoxazol-4-yl)methoxy)-2-azabicyclo[2.2.1]heptan-2-yl)-4-fluorobenzo[d]thiazole-6-carboxylic acid] showed a pEC50 in assay [1] (setting [3]) of 8. The Emax in assay [1] (setting [4]) was 188%; in assay [2] (setting [4]) it was 112%. This compound also gave an EC50 in assay [2] (setting [5]) of 3.98 nM.

As for `O=C(O)[C@H]1CCc2cc(N3C[C@@H]4C[C@H]3C[C@H]4OCc3c(-c4c(Cl)cccc4Cl)noc3C3CC3)ccc2C1` (single isomer, unassigned) [Compound I-138], the pEC50 in assay [1] (setting [3]) stood at 7.6. In addition, the figures for the Emax in assay [1] (setting [4]) and in assay [2] (setting [4]) were 132% and 106%, respectively. The EC50 in assay [2] (setting [5]) is 15.8 nM.

As for `O=C(O)CCc1ccc(N2C[C@@H]3C[C@H]2C[C@H]3OCc2c(-c3c(Cl)cccc3Cl)noc2C2CC2)cc1F` [Compound I-155, 3-{4-[(1S,4S,5R)-5-{[5-cyclopropyl-3-(2,6-dichlorophenyl)-1,2-oxazol-4-yl]methoxy}-2-azabicyclo[2.2.1]heptan-2-yl]-2-fluorophenyl}propanoic Acid], in assay [1] (setting [3]), the pEC50 is given as 8.3. Further, the values for the Emax in assay [1] (setting [4]) and in assay [2] (setting [4]) were 136% and 102%, respectively. In assay [2] (setting [5]), this compound had an EC50 of 1 nM.

Turning to `O=C(c1ccc(N2C[C@@H]3C[C@H]2C[C@H]3OCc2c(-c3c(Cl)cccc3Cl)noc2C2CC2)cc1)C(F)(F)F` [Compound I-142, 1-{4-[(1S,4S,5R)-5-{[5-cyclopropyl-3-(2,6-dichlorophenyl)-1,2-oxazol-4-yl]methoxy}-2-azabicyclo[2.2.1]heptan-2-yl]phenyl}-2,2,2-trifluoroethan-1-one], the pEC50 in assay [1] (setting [3]) was determined as 7.8. Further, the Emax is 78% in assay [1] (setting [4]) and 104% in assay [2] (setting [4]). The same compound had an EC50 in assay [2] (setting [5]) of 20 nM.

For the compound `O=C(NS(=O)(=O)C1CC1)c1ccc(N2C[C@@H]3C[C@H]2C[C@H]3OCc2c(-c3ccccc3C(F)(F)F)noc2C2CC2)c(F)c1` [Compound I-202, 4-((1S,4S,5R)-5-((5-cyclopropyl-3-(2-(trifluoromethyl)phenyl)isoxazol-4-yl)methoxy)-2-azabicyclo[2.2.1]heptan-2-yl)-N-(cyclopropylsulfonyl)-3-fluorobenzamide], the pEC50 in assay [1] (setting [3]) is on record as 8.5; in assay [2] (setting [5]), 9.4. Also, the figures for the “% Efficacy” value in assay [1] (setting [4]) and in assay [2] (setting [4]) were 215% and 114%, respectively.

As for `O=C(O)c1cc(C2CC3(CCOCC3)C2)c2nc(N3C(=O)[C@@H]4C[C@H]3C[C@H]4OCc3c(-c4c(Cl)cccc4Cl)noc3C3CC3)sc2c1` [Compound I-300, 2-((1S,4R,5R)-5-((5-cyclopropyl-3-(2,6-dichlorophenyl)isoxazol-4-yl)methoxy)-3-oxo-2-azabicyclo[2.2.1]heptan-2-yl)-4-(7-oxaspiro[3.5]nonan-2-yl)benzo[d]thiazole-6-carboxylic acid], in assay [1] (setting [3]), the negative-log EC50 (pEC50) was determined as 1. The Emax in assay [1] (setting [4]) was 82%; in assay [2] (setting [4]), 117%. In assay [2] (setting [5]), this compound had an EC50 of 100 nM.

`Cc1cccc(Cl)c1-c1noc(C2CC2)c1CO[C@@H]1C[C@@H]2C[C@H]1CN2c1nc2c([C@H]3CCOC3)cc(C(=O)O)cc2s1` [Compound I-272, 2-((1S,4S,5R)-5-((3-(2-chloro-6-methylphenyl)-5-cyclopropylisoxazol-4-yl)methoxy)-2-azabicyclo[2.2.1]heptan-2-yl)-4-((R)-tetrahydrofuran-3-yl)benzo[d]thiazole-6-carboxylic Acid] came in with a pEC50 in assay [1] (setting [3]) of 8.4. Also, the Emax in assay [1] (setting [4]) is 132%; in assay [2] (setting [4]) it was 105%. The same compound had an EC50 in assay [2] (setting [5]) of 0.501 nM.
